Results as given in publication PMC2790544 (Biochemistry, 2009).

Tested on: Sec(GLP1TM4-5)R
Assay: cAMP response
Format: cell-based, human
Conditions: COS cells, LANCE, basal 2.1±0.5

CC(C)C[C@H](NC(=O)CNC(=O)[C@H](CCC(N)=O)NC(=O)[C@H](CC(C)C)NC(=O)[C@H](CC(C)C)NC(=O)[C@H](CCCNC(=N)N)NC(=O)[C@H](CCC(N)=O)NC(=O)[C@H](CC(C)C)NC(=O)[C@H](CCCNC(=N)N)NC(=O)[C@H](C)NC(=O)CNC(=O)[C@H](CCC(=O)O)NC(=O)[C@H](CCCNC(=N)N)NC(=O)[C@H](CC(C)C)NC(=O)[C@H](CCCNC(=N)N)NC(=O)[C@H](CO)NC(=O)[C@H](CC(C)C)NC(=O)[C@H](CCC(=O)O)NC(=O)[C@H](CO)NC(=O)[C@@H](NC(=O)[C@H](Cc1ccccc1)NC(=O)[C@@H](NC(=O)CNC(=O)[C@H](CC(=O)O)NC(=O)[C@H](CO)NC(=O)[C@@H](N)Cc1c[nH]cn1)[C@@H](C)O)[C@@H](C)O)C(=O)N[C@H](C(N)=O)C(C)C [secretin]
maximal cAMP level (Emax): 149±15 picomoles per million cells
